Assay results taken from PMC10467532, “Design, synthesis, and biological evaluation of thiazole/thiadiazole carboxamide scaffold-based derivatives as potential c-Met kinase inhibitors for cancer treatment” (Journal of Enzyme Inhibition and Medicinal Chemistry, 2023).
Each block holds one compound with its values, some of them ahead of it.

Columns and labels:
FHC = assay: MTT cytotoxicity assay, normal FHC cells; conditions: Homo sapiens, 48 h, read-out: IC50 FHC
Procedure: (§2) MTT assay was used to determine the cytotoxic activity of target compounds against different cell lines. […] Then, the cells were treated with five doses of test compounds (pre-dissolved in DMSO), and 0.1% DMSO was used as a negative control. […] The results expressed as IC50 were the average of three determinations calculated by using the Bacus Laboratories Incorporated Slide Scanner (Bliss) software.

MDA-MB-231 = assay: MTT antiproliferative assay, MDA-MB-231; conditions: Homo sapiens, MDA-MB-231, 48 h, read-out: IC50 MDA-MB-231
Procedure: as §2

A549 = assay: MTT antiproliferative assay, A549; conditions: Homo sapiens, A549, 48 h, read-out: IC50 A549
Procedure: as §2

c-Met Y1235D = target: T1, c-Met Y1235D (Homo sapiens, UniProt P08581, Y1235D); assay: Tyrosine kinase HTRF assay, c-Met Y1235D; assay type: biochemical
T1 construct: purchased Invitrogen (Waltham, MA)
Procedure: (§1) On the other hand, comprehensive understanding the off-target kinase inhibition is critical for any kinase inhibitors, particularly to help explain the correlations between efficacy and potential side effects. […] The reactions were quenched by addition 10 µL mixed detection solution. […] The inhibition rate (%) was calculated using the following equation: inhibition rate = [(activity of enzyme with tested compound – min)/(max – min)] × 100 (max: the enzyme activity in the presence of enzyme, substrates and cofactors; min: the enzyme activity in the presence of substrates, cofactors and in the absence of enzyme). IC50 value was calculated from the inhibition curve using GraphPad Prism 5.0 software (La Jolla, CA).

c-kit = target: T2, c-kit (Homo sapiens, UniProt P10721); assay: Tyrosine kinase HTRF assay, c-kit; assay type: biochemical
T2 construct: purchased Invitrogen (Waltham, MA)
Procedure: as §1

c-Met = target: T3, c-Met (Homo sapiens, UniProt P08581); assay: In vitro c-Met enzymatic assay (HTRF); assay type: biochemical; conditions: HTRF assay; mean ± SD, triplicate; read-out: IC50 against c-Met
T3 construct: purchased Invitrogen (Waltham, MA)
Procedure: Inhibition of target compounds on c-Met kinase activity was measured by using the homogeneous time-resolved fluorescence (HTRF) assay.
The tyrosine kinases inhibitory activities of target compounds were evaluated in 384-well microtiter plates using purified kinases purchased from Invitrogen (Waltham, MA) by homogeneous time-resolved fluorescence (HTRF) assay. The HTRF KinEASE TK kit was performed according to the instructions. After the kinases and test compounds were incubated at 25–30 °C for 5 min, the kinase reactions were initiated by addition of 39 μL of kinase reaction buffer solution and incubated at 25–30 °C for 30 min. The reactions were quenched by addition 10 µL mixed detection solution. […] The inhibition rate (%) was calculated using the following equation: inhibition rate = [(activity of enzyme with tested compound – min)/(max – min)] × 100 (max: the enzyme activity in the presence of enzyme, substrates and cofactors; min: the enzyme activity in the presence of substrates, cofactors and in the absence of enzyme). IC50 value was calculated from the inhibition curve using GraphPad Prism 5.0 software (La Jolla, CA).

[1] = system: c-Met phosphorylation in MKN-45 cells; assay: Western blotting analysis of c-Met phosphorylation; assay type: cell-based, human; conditions: 24 h, 0, 2.5, 5.0, and 10.0 μM
Procedure: To obtain further insight into the mechanism of 51am induced apoptosis, western blot assay was carried out to investigate the effect of 51am on the phosphorylation of c-Met in living cells. MKN-45 cells were treated with 51am for 24 h in a series of concentrations (0, 2.5, 5.0, and 10.0 μM) using DMSO as the negative control, and the level of GAPDH served as the loading control.
MKN-45 cells were incubated with the test compound at various concentrations for 24 h. After incubation, cells were harvested in PBS solution containing proteinase inhibitors and phosphatase inhibitors, and then sonicated. Whole cell lysates were separated by sodium dodecyl sulphate-polyacrylamide gel electrophoresis (SDS-PAGE) and transferred to nitrocellulose membrane (Beyotime Biotechnology, Shanghai, China). The membrane was incubated with primary antibody followed by labelling with horseradish peroxidase (HRP)-conjugated secondary antibody (Beyotime Biotechnology, Shanghai, China). The blots were developed with enhanced chemiluminescence and visualised by an LAS4000 imager (Fuji Photo Film, Minato City, Japan).

Flt-3 = target: T4, Flt-3 (Homo sapiens, UniProt P36888); assay: Tyrosine kinase HTRF assay, Flt-3; assay type: biochemical
T4 construct: purchased Invitrogen (Waltham, MA)
Procedure: as §1

c-Met D1228H = target: T5, c-Met D1228H (Homo sapiens, UniProt P08581, D1228H); assay: Tyrosine kinase HTRF assay, c-Met D1228H; assay type: biochemical
T5 construct: purchased Invitrogen (Waltham, MA)
Procedure: as §1

HUVEC = assay: MTT cytotoxicity assay, normal HUVEC cells; conditions: Homo sapiens, 48 h, read-out: IC50 HUVEC
Procedure: as §2

Flt-4 = target: T6, Flt-4 (Homo sapiens, UniProt P35916); assay: Tyrosine kinase HTRF assay, Flt-4; assay type: biochemical
T6 construct: purchased Invitrogen (Waltham, MA)
Procedure: as §1

MKN-45 cells = assay: Apoptosis by Annexin V/PI double staining, flow cytometry; conditions: 24 h, control 6.02%
Procedure: Apoptosis was detected by an Annexin V/propidium iodide (PI) double staining kit (Beyotime Biotechnology, Shanghai, China). […] Cells were harvested by trypsinisation and washed with ice-cold PBS solution. Cells were labelled with annexin V and PI and incubated at room temperature for 30 min in the dark. The labelled cells were analysed by a FACScan flow cytometer (Becton Dickinson, Franklin Lakes, NJ).

VEGFR-2 = target: T7, VEGFR-2 (Homo sapiens, UniProt P35968); assay: Tyrosine kinase HTRF assay, VEGFR-2; assay type: biochemical
T7 construct: purchased Invitrogen (Waltham, MA)
Procedure: as §1

c-Met Y1230H = target: T8, c-Met Y1230H (Homo sapiens, UniProt P08581, Y1230H); assay: Tyrosine kinase HTRF assay, c-Met Y1230H; assay type: biochemical
T8 construct: purchased Invitrogen (Waltham, MA)
Procedure: as §1

HT-29 = assay: MTT antiproliferative assay, HT-29; conditions: Homo sapiens, HT-29, 48 h, read-out: IC50 HT-29
Procedure: as §2

c-Met H1094R = target: T9, c-Met H1094R (Homo sapiens, UniProt P08581, H1094R); assay: Tyrosine kinase HTRF assay, c-Met H1094R; assay type: biochemical
T9 construct: purchased Invitrogen (Waltham, MA)
Procedure: as §1

[2] = Pharmacokinetic study in BALB/c mice; assay type: in vivo; conditions: male, mouse, plasma
Procedure: Identification of drugs with an acceptable balance of potency, physical properties, and pharmacokinetics (PK) has always been a challenge that often hinders evaluation of the compounds in xenograft models and therapeutic use in clinical practice. Therefore, the PK profile of compound 51am was evaluated in BALB/c mice after intravenous (i.v.) injection and oral administration (p.o.) because of its excellent in vitro activity. […] Based on the good overall PK profile, 51am could be a potential candidate for cancer therapy.
The experimental procedures and the animal use and care protocols were approved by the Committee on Ethical Use of Animals of Shenzhen Second People’s Hospital. Each male BALB/c mice received a single compound 51am as a solution in PEG 400/water (70:30) by either oral route (10 mg/kg) or i.v. route (1.5 mg/kg). Blood samples were collected into the microcentrifuge tube containing heparin at time points 0 (prior to dosing) 5, 10, 20, 30, 60, 180, 360, 480, 600, 720, 1080, and 1440 min after dosing. The blood samples were centrifuged; the obtained plasma was separated and stored at –20 °C. All samples for 51am were measured by liquid chromatography–tandem mass spectrometry (LC/MS/MS).

PDGFRβ = target: T10, PDGFRβ (Homo sapiens, UniProt P09619); assay: Tyrosine kinase HTRF assay, PDGFRβ; assay type: biochemical
T10 construct: purchased Invitrogen (Waltham, MA)
Procedure: as §1

[3] = system: PDGFRα, PDGFRβ, VEGFR-2, and Flt-4; assay: Kinase selectivity relative to c-Met; assay type: biochemical
Procedure: as §1

EGFR = target: T11, EGFR (Homo sapiens, UniProt P00533); assay: Tyrosine kinase HTRF assay, EGFR; assay type: biochemical
T11 construct: purchased Invitrogen (Waltham, MA)
Procedure: as §1

MKN-45 = assay: MTT antiproliferative assay, MKN-45; conditions: Homo sapiens, MKN-45, 48 h, read-out: IC50 MKN-45
Procedure: as §2

c-Met M1250T = target: T12, c-Met M1250T (Homo sapiens, UniProt P08581, M1250T); assay: Tyrosine kinase HTRF assay, c-Met M1250T; assay type: biochemical
T12 construct: purchased Invitrogen (Waltham, MA)
Procedure: as §1

PDGFRα = target: T13, PDGFRα (Homo sapiens, UniProt P16234); assay: Tyrosine kinase HTRF assay, PDGFRα; assay type: biochemical
T13 construct: purchased Invitrogen (Waltham, MA)
Procedure: as §1

Ron = target: T14, Ron (Homo sapiens, UniProt Q04912); assay: Tyrosine kinase HTRF assay, Ron; assay type: biochemical
T14 construct: purchased Invitrogen (Waltham, MA)
Procedure: as §1

[4] = system: c-Met and its downstream protein Akt in MDA-MB-231 cells; parameters: method as in earlier work; conditions: cited from earlier work

T3 sequence (P08581 25-1390): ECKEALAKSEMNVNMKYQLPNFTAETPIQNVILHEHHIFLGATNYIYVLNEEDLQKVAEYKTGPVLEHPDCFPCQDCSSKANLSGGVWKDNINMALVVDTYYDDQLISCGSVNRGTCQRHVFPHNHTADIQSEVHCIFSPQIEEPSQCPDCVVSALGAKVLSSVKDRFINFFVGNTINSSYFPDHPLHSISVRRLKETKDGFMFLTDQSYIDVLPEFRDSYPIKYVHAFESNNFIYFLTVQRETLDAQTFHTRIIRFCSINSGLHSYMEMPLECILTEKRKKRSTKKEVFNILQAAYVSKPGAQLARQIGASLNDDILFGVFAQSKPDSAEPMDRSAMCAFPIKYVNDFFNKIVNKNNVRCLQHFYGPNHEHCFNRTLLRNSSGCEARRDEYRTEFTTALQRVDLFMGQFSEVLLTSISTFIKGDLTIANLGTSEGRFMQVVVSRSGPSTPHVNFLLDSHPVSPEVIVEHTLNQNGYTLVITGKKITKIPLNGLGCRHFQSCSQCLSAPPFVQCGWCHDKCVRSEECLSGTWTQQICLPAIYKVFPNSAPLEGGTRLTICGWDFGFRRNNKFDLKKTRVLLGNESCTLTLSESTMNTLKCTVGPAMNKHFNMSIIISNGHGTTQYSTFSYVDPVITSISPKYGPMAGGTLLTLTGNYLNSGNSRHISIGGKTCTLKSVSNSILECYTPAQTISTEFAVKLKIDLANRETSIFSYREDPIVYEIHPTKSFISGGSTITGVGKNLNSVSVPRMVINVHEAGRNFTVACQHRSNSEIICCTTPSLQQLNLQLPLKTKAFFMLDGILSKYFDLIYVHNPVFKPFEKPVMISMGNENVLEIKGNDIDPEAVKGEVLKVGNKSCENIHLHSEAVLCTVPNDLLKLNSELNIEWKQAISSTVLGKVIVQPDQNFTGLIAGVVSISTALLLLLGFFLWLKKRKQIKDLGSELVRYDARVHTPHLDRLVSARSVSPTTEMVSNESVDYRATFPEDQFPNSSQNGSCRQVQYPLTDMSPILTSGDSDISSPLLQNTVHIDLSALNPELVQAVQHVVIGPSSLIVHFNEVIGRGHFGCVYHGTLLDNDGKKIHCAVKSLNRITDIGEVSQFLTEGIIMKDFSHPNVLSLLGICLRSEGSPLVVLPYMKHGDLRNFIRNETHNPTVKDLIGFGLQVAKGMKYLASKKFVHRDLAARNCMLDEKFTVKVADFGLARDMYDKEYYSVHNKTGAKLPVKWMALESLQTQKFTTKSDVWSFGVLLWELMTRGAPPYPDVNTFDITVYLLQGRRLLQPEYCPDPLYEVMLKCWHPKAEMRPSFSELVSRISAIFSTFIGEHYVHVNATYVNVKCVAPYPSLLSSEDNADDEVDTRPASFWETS
T7 sequence (P35968 20-1356): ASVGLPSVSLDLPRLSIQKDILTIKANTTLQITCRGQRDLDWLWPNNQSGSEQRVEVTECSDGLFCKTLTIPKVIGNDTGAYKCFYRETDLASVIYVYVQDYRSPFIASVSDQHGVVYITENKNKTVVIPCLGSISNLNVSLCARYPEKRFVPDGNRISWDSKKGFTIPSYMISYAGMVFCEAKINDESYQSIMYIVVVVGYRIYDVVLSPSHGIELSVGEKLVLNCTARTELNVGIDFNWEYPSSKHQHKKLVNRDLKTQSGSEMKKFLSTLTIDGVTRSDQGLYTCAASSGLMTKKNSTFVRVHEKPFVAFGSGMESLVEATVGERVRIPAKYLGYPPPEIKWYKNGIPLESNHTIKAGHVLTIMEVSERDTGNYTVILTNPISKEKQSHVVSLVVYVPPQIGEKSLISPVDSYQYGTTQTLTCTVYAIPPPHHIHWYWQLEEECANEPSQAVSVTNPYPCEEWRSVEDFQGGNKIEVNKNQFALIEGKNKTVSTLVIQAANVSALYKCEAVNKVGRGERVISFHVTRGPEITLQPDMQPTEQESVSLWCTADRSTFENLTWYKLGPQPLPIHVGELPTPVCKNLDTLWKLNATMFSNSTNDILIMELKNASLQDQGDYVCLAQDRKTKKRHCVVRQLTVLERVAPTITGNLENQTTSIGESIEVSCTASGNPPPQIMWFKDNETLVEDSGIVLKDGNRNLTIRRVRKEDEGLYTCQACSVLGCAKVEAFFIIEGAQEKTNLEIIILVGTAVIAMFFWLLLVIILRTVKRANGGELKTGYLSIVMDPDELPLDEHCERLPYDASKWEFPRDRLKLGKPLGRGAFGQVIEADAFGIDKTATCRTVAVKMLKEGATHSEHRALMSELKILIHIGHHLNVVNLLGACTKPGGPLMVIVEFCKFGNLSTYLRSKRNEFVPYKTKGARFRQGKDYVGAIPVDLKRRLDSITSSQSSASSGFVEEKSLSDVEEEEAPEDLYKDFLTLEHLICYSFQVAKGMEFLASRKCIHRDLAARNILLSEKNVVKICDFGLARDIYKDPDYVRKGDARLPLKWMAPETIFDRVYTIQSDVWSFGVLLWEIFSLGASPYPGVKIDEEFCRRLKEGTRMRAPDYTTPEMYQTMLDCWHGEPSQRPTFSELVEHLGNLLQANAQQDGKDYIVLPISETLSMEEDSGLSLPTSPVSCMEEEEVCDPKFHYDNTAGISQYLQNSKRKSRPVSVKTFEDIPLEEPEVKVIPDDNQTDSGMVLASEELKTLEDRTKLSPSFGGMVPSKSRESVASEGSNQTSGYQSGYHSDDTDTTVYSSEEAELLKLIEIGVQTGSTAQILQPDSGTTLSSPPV
T1 sequence (P08581 25-1390 Y1235D): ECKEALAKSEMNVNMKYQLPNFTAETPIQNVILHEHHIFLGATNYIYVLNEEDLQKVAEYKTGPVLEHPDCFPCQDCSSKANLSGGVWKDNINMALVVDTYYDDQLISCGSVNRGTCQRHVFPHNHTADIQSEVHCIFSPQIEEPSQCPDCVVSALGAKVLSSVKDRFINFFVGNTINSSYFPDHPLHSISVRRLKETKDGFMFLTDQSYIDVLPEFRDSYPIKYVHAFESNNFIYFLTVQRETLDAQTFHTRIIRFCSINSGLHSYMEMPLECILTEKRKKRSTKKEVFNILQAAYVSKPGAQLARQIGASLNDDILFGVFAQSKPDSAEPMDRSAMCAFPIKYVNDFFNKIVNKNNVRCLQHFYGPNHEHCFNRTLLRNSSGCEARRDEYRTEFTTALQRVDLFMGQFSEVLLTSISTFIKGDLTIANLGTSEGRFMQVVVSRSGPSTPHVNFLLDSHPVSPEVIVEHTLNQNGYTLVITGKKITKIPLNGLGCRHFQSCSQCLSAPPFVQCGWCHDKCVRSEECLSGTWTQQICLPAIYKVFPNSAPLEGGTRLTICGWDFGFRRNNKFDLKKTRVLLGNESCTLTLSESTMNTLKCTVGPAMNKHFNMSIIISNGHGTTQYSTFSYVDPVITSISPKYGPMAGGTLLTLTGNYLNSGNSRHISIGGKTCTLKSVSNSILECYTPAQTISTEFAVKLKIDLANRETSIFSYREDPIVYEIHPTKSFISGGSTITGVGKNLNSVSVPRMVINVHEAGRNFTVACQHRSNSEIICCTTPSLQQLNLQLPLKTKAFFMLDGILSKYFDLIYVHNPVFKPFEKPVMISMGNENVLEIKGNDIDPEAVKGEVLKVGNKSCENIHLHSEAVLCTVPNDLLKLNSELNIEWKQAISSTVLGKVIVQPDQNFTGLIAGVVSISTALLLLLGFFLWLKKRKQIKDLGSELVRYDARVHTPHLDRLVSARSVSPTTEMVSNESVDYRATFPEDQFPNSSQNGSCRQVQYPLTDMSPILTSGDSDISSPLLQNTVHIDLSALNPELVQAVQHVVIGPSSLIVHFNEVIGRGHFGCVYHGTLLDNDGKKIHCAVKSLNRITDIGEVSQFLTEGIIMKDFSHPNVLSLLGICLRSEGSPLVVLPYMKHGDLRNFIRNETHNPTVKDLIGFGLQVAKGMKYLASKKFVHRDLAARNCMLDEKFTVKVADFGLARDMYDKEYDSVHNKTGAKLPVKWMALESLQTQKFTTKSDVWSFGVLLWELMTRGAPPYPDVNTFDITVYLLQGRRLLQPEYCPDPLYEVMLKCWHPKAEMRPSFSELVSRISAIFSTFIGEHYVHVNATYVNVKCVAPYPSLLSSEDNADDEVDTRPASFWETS
T10 sequence (P09619 33-1106): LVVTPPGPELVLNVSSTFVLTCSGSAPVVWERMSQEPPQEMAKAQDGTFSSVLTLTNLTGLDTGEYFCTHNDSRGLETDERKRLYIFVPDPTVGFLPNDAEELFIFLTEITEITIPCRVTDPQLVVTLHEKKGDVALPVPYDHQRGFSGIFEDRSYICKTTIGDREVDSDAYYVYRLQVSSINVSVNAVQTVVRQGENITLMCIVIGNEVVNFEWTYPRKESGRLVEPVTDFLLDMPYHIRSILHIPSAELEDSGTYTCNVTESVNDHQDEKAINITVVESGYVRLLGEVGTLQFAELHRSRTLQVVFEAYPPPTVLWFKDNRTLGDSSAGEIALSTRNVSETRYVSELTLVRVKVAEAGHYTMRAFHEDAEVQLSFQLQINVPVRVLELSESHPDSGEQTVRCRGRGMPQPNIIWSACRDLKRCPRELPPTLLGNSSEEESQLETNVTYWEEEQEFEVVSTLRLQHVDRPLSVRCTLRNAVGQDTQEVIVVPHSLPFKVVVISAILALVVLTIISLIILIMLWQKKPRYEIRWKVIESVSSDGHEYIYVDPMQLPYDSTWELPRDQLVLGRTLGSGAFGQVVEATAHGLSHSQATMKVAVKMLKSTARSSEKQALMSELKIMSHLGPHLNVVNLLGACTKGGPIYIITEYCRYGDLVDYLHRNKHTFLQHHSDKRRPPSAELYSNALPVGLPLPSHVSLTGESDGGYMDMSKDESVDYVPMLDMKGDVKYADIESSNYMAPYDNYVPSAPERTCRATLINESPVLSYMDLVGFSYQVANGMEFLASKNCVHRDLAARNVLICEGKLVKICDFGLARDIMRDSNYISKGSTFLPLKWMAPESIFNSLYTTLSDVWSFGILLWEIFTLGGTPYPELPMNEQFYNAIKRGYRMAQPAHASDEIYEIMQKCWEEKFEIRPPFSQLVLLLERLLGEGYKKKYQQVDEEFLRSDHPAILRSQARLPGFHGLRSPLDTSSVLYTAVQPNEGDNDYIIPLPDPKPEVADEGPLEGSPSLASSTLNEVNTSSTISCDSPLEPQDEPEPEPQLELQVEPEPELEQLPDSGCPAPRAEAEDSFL

Compound: O=C(Nc1ccc(Oc2ccnc(Cl)c2Cl)c(F)c1)c1nc(-c2ccc(F)c(Cl)c2)cs1 [Compound 51am, 4-(3-Chloro-4-fluorophenyl)-N-(4-((2,3-dichloropyridin-4-yl)oxy)-3-fluorophenyl)thiazole-2-carboxamide]
IC50 (FHC): 8630 ± 1520 nM
IC50 (MDA-MB-231): 3940 ± 1320 nM
IC50 (A549): 830 ± 360 nM
IC50 (c-Met Y1235D): 54.2 nM
IC50 (c-kit): 4.94 nM
IC50 (c-Met): 2.54 ± 0.49 nM
effect on c-Met phosphorylation (western blot) [1]: inhibited c-Met phosphorylation in a dose-dependent manner
IC50 (Flt-3): 6.12 nM
IC50 (c-Met D1228H): 29.4 nM
IC50 (HUVEC): 2540 ± 460 nM
IC50 (Flt-4): 276 nM
percentage of apoptotic cells (MKN-45 cells; MKN-45, 0.4 μM): 14.74%
percentage of apoptotic cells (MKN-45 cells; MKN-45, 0.8 μM): 19.83%
percentage of apoptotic cells (MKN-45 cells; MKN-45, 1.2 μM): 38.54%
IC50 (VEGFR-2): 527 nM
IC50 (c-Met Y1230H): 45.8 nM
IC50 (HT-29): 680 ± 90 nM
IC50 (c-Met H1094R): 93.6 nM
AUC(0-inf) ([2]; iv, i.v. (1.5 mg/kg)): 2500 ng·h/mL
Cmax ([2]; iv, i.v. (1.5 mg/kg)): 552 ng/mL
half-life ([2]; iv, i.v. (1.5 mg/kg)): 3.2 h
clearance ([2]; iv, i.v. (1.5 mg/kg), CL = dose/AUCi.v.): 10 mL/min/kg
bioavailability ([2]; oral, p.o. (10 mg/kg) vs i.v. (1.5 mg/kg), read-out: F (oral bioavailability)): 69%
AUC(0-inf) ([2]; po, p.o. (10 mg/kg)): 11500 ng·h/mL
Cmax ([2]; po, p.o. (10 mg/kg)): 1760 ng/mL
Tmax ([2]; po, p.o. (10 mg/kg)): 4.1 h
half-life ([2]; po, p.o. (10 mg/kg)): 5.6 h
IC50 (PDGFRβ): 513 nM
fold less potent than against c-Met [3]: 108–207 fold
IC50 (EGFR): > 10000 nM
IC50 (MKN-45): 92 ± 6 nM
IC50 (c-Met M1250T): 26.5 nM
IC50 (PDGFRα): 425 nM
IC50 (Ron): 3.83 nM

Compound: COc1cc2c(Oc3ccc(NC(=O)C4(C(=O)Nc5ccc(F)cc5)CC4)cc3F)ccnc2cc1OCCCN1CCOCC1 [Foretinib, reference compound]
IC50 (FHC): 4060 ± 750 nM
IC50 (MDA-MB-231): 890 ± 140 nM
IC50 (A549): 450 ± 50 nM
IC50 (HUVEC): 680 ± 90 nM
percentage of apoptotic cells (MKN-45 cells; MKN-45, 1.2 μM): 41.21%
IC50 (HT-29): 370 ± 50 nM
IC50 (MKN-45): 58 ± 6 nM

Compound: Cn1cc(-c2ccc3nnc(Sc4ccc5ncccc5c4)n3n2)cn1 [SGX523]
inhibition of phosphorylation of c-Met and Akt [4]: effectively inhibited the phosphorylation of c-Met and its downstream protein Akt

More lines, main results first:

IC50 (MDA-MB-231): 28600 ± 1850 nM
IC50 (A549): 8650 ± 1720 nM
IC50 (c-Met): 31.5 ± 4.25 nM
melting point: 157 to 159 °C
IC50 (HT-29): 14300 ± 2130 nM
IC50 (MKN-45): 3460 ± 750 nM
Compound: Cc1ccc(-c2csc(C(=O)Nc3ccc(Oc4ccnc(Cl)c4)c(F)c3)n2)cc1 [Compound 51x, N-(4-((2-Chloropyridin-4-yl)oxy)-3-fluorophenyl)-4-(4-methylphenyl)thiazole-2-carboxamide]
IC50 (FHC): 43400 ± 3680 nM
IC50 (HUVEC): 30800 ± 2430 nM

IC50 (MDA-MB-231): 20500 ± 3140 nM
IC50 (A549): 11300 ± 1960 nM
IC50 (c-Met): 45.5 ± 6.28 nM
melting point: 120 to 122 °C
IC50 (HT-29): 15600 ± 2510 nM
IC50 (MKN-45): 4050 ± 1120 nM
Compound: COc1ccc(-c2csc(C(=O)Nc3ccc(Oc4ccnc(Cl)c4)c(F)c3)n2)cc1OC [Compound 51z, N-(4-((2-Chloropyridin-4-yl)oxy)-3-fluorophenyl)-4-(3,4-dimethoxyphenyl)thiazole-2-carboxamide]
IC50 (FHC): > 100000 nM
IC50 (HUVEC): 26500 ± 3840 nM
